Non-standard residues stand in square brackets, D forms with d. No end group written: not given here. *: point of attachment. Aib = CC(C)(N)C(=O)O; Propyl = CCC*
Legend:
[1] = molecular target: T1, CRH-R1 (Homo sapiens, UniProt P34998); assay: Stimulation of cyclic AMP generation (CRE-luciferase activity) in LLC-PK1 cells cotransfected with CRH-R1 and CRE; type: cell-based; conditions: LLC-PK1 cells cotransfected with CRH-R1 and CRE cDNA; peptides 10^-6 to 10^-11 M, 7 hours at 37°C; luciferase read-out; maximum response compared to h/r-CRH; read-out: Biological activity: % Response max/CRH
T1 construct: expressed in transfected cells; host or cells: LLC-PK1 cells (electroporation)
T1 sequence (P34998 24-415): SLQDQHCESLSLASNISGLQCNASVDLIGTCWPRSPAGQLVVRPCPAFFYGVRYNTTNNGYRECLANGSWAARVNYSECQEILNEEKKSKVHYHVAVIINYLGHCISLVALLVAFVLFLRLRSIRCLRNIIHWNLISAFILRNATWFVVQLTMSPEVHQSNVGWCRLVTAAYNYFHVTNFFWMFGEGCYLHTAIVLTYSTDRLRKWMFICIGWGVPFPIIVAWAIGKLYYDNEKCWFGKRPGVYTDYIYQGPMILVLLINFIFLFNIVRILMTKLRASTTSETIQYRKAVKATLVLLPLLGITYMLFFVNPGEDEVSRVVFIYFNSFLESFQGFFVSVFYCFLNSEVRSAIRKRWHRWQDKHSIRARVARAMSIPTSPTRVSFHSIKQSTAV
Protocol: The capacity of CRH and related peptide analogues to stimulate cyclic AMP generation was monitored in LLC-PK1 cells cotransfected with cDNA of CRH-R1 and CRE. For transfection the method of electroporation was applied and 40 millions of LLC-PK1 cells were prepared and washed in cytomix 1X transfection medium. The electroporation medium consisted of 1000 μL of cytomix 2X, 864 μL of sterilized water, 80 μL of ATP 50 mM, 3.2 mg of glutathion, 20 μg of CRH-R1 cDNA and 20 μg of CRE cDNA. 500 μL of the above solution were transferred in the electroporation device and after remaining for 10 minutes a standard growth medium was added (DMEM without phenol red with glutamine, antibiotics, and 10% FCS) to a total volume of 50 mL. The suspension was distributed in […] of 24 wells each, by adding 1 mL per well, and was allowed to pre-incubate for 24 hours. The growth medium was aspirated and replaced with fresh one followed by another preincubation for 24 hours. The cells were then challenged with graded concentrations (10^−6 to 10^−11 M) of the test peptides and incubated for 7 hours at 37°C. After that, the medium with the added peptides was removed, the cells were washed twice with PBS 1X, 100 μL of lysis buffer 1X per well were added, the plates were left at room temperature for 30 minutes and then stored at −80°C overnight. The luciferace activity was measured with the use of a luminometer after the addition of 50 μL of lysed cell preparation and 50 μL of bioluminescence medium per well in a 96 well plate luminometer.

[2] = molecular target: T2, CRH-1 receptor (Homo sapiens, UniProt P34998); assay: Binding affinity of h/r-CRH analogues to the CRH-1 receptor; conditions: averages from 3 experiments performed in duplicates
T2 sequence (P34998 24-415): T1 sequence (P34998 24-415)

[3] = times more potent than α-helical CRH; cited from earlier work
From the text: Introduction of D-amino acids leading to stabilization of β-turns, can provide analogues with increased potency but not all residues are susceptible to such an alteration, leading even to the opposite effect. However, the D-Phe^12 substitution has proven to be a favorable one especially combined with other advantageous modifications such as the replacement of Met at positions 21 and 38 with Nle.

| Substance | Emax [1] | IC50 [2] | Potency relative to α-helical CRH [3] |
| --- | --- | --- | --- |
| [D-Phe^12, Nle^21, 38]CRH21-41 |  |  | 15 times |
| [D-Phe^12]CRH |  |  | twice |

Now from value to substance, other results behind:

| Emax [1] | IC50 [2] | Substance | Potency relative to α-helical CRH [3] |
| --- | --- | --- | --- |
| 60% | 35 nM | SEEPPISLDLT[dF]HLLREVLEMARAEQLAQQAHSNRKLC(Propyl)EII-NH2 [Analogue 4, [D-Phe^12, Cys(Pr)^38]CRH] |  |
| 60% | 8.4 nM | SEEPPISLDLT[dF]HL[Aib]REVLEMARAEQLAQQAHSNRKLMEII-NH2 [Analogue 2, [D-Phe^12, Aib^15]CRH] |  |
| 60% | 226 nM | SEEPPISLDLT[dF]H[Aib]LREVLEMARAEQLAQQAHSNRKLMEII-NH2 [Analogue 1, [D-Phe^12, Aib^14]CRH] |  |
